From US20240368174A1, “Antiviral Heterocyclic Compounds” (Enanta Pharmaceuticals, Inc., priority 2023, published 2024)

Columns and labels:
[1] = system: HMPV clinical isolate A2 strain TN 94-49; assay: HMPV antiviral assay, Method 2 (LLC-MK2 cells with CP-100-356, ATP-Lite); format: cell-based; conditions: human metapneumovirus; hMPV A2 TN/94-49, LLC-MK2 cells with CP-100-356, Method 2
In short: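 LLC-MK2 rhesus kidney cells (5,000/well) infected in suspension with HMPV A2 TN 94-49 at MOI 0.16, in serum-free medium with final 2 μg/mL TPCK-trypsin and 2 μM CP-100-356. Compounds tested in duplicate from 200 nM, 2.5-fold, 10 points; 7 days at 37 °C. Cell health by ATP-Lite luminescence; EC50 by four-parameter fit.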

[2] = system: genotype A, “Long” strain RSV; assay: RSV-A assay (CPE, ATPlite readout in Hep-2 cells); format: cell-based, Human respiratory syncytial virus; conditions: human respiratory syncytial virus, activity class
In short: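 Hep-2, 8,000 cells/well, MOI 0.1 (PFU- or TCID50-based); 2-fold compound series, duplicates; 5 d incubation; ATPlite luminescence readout; EC50.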

Compound | EC50 [1] [µM] | EC50 [2] [µM]
COc1cc(C(=O)NC[C@](O)(c2cc3c(c(-c4cc(F)nc(F)c4)n2)OC[C@]3(C)C(N)=O)C2CC2)cc2cn(C3CC3)nc12 [Example 390] | < 0.2 | < 0.2
COc1cc(C(=O)NC[C@@](O)(c2cccc(F)c2)c2cc3c(c(-c4ccnc(F)c4Cl)n2)OC[C@]3(C)C(N)=O)cc2cn(C3(F)CC3)nc12 [Example 401] | < 0.2 | < 0.2
COc1cc(C(=O)NC[C@](O)(c2cccc(F)c2)c2cc3c(c(-c4ccnc(F)c4Cl)n2)OC[C@]3(C)C(N)=O)cc2cn(C3(F)CC3)nc12 [Example 402] | > 0.2 | > 0.2
COc1cc(C(=O)NC[C@@](O)(c2cccc(F)c2)c2cc3c(c(-c4cc(F)cnc4Cl)n2)OC[C@]3(C)C(N)=O)cc2cn(C3(F)CC3)nc12 [Example 403] | > 0.2 | < 0.2
COc1cc(C(=O)NC[C@](O)(c2cccc(F)c2)c2cc3c(c(-c4cc(F)cnc4Cl)n2)OC[C@]3(C)C(N)=O)cc2cn(C3(F)CC3)nc12 [Example 404] | > 0.2 | > 0.2
COc1cc(C(=O)NC[C@@](O)(c2cccc(F)c2)c2cc3c(c(-c4ccnc(F)c4Cl)n2)OC[C@]3(C)C(N)=O)cc2cn(C3CC3)nc12 [Example 407] | < 0.2 | < 0.2
COc1cc(C(=O)NC[C@@](O)(c2cccc(F)c2)c2cc3c(c(-c4cc(C(F)(F)F)ncc4F)n2)OC[C@]3(C)C(N)=O)cc2cn(C3CC3)nc12 [Example 408] | < 0.2 | < 0.2
COc1cc(C(=O)NC[C@@](O)(c2cccc(F)c2)c2cc3c(c(-c4cc(Cl)ncc4F)n2)OC[C@]3(C)C(N)=O)cc2cn(C3CC3)nc12 [Example 410] | < 0.2 | < 0.2
COc1cc(C(=O)NC[C@](O)(c2cc3c(c(-c4cc(C)ncc4F)n2)OC[C@]3(C)C(N)=O)C2CC2)cc2cn(C3CC3)nc12 [Example 412] | < 0.2 | < 0.2
COc1cc(C(=O)NC[C@](O)(c2cc3c(c(-c4ccsc4)n2)OC[C@]3(C)C(N)=O)C2CC2)cc2cn(C3CC3)nc12 [Example 413] | < 0.2 | < 0.2
COc1cc(C(=O)NC[C@](O)(c2cc3c(c(-c4cscc4C)n2)OC[C@]3(C)C(N)=O)C2CC2)cc2cn(C3CC3)nc12 [Example 414] | < 0.2 | < 0.2
COc1cc(C(=O)NC[C@](O)(c2cc3c(c(-c4ccsc4Cl)n2)OC[C@]3(C)C(N)=O)C2CC2)cc2cn(C3CC3)nc12 [Example 415] | < 0.2 | < 0.2
COc1cc(C(=O)NC[C@](O)(c2cc3c(c(-c4csc(Cl)c4)n2)OC[C@]3(C)C(N)=O)C2CC2)cc2cn(C3CC3)nc12 [Example 416] | < 0.2 | < 0.2
COc1cc(C(=O)NC[C@](O)(c2cc3c(c(-c4cc(Cl)ncc4C)n2)OC[C@]3(C)C(N)=O)C2CC2)cc2cn(C3CC3)nc12 [Example 417] | < 0.2 | < 0.2
COc1cc(C(=O)NC[C@](O)(c2cc3c(c(-n4ccc5ccccc54)n2)OC[C@]3(C)C(N)=O)C2CC2)cc2cn(C3CC3)nc12 [Example 443] | < 0.2 | < 0.2
C#CC(O)(CNC(=O)c1cc(OC)c2nn(C3CC3)cc2c1)c1cc2c(c(-c3cc(Cl)c(F)cc3F)n1)OC[C@]2(C)C(N)=O (stereo partly shown) [Example 473] | > 0.2 | < 0.2
COc1cc(C(=O)NC[C@](O)(c2cc3c(c(-c4cc(Cl)c(F)cc4F)n2)OC[C@]3(C)C(N)=O)C(C)C)cc2cn(C3CC3)nc12 [Example 476] | < 0.2 | < 0.2
COc1cc(C(=O)NC[C@@](O)(C#CC(C)(C)O)c2cc3c(c(-c4cc(Cl)c(F)cc4F)n2)OC[C@]3(C)C(N)=O)cc2cn(C3CC3)nc12 [Example 477] | > 0.2 | < 0.2

Compound | EC50 [1] [µM] | EC50 [2] [µM]
COc1cc(C(=O)NC[C@@](O)(CC2CC2)c2cc3c(c(-c4cc(Cl)c(F)cc4F)n2)OC[C@]3(C)C(N)=O)cc2cn(C3CC3)nc12 [Example 517] | > 0.2 | > 0.2
COC1=CC(C(=O)NC[C@](O)(c2cc3c(c(-c4ccnc(C)c4Cl)n2)OC[C@]3(C)C(N)=O)C2(F)CC2)=CC2OC(C3CC3)=NC12 (stereo partly shown) [Example 526] | < 0.2 | < 0.2
COc1cc(C(=O)NC[C@](O)(c2cc3c(c(-c4ccnc(C)c4Cl)n2)OC[C@]3(C)C(N)=O)C2(F)CC2)cc2cn(C(F)F)nc12 [Example 527] | > 0.2 | < 0.2
COc1cc(C(=O)NC[C@](O)(c2cc3c(c(-c4ccnc(C)c4Cl)n2)OC[C@]3(C)C(N)=O)C2(F)CC2)cc2cn(C3CC3)nc12 [Example 531] | < 0.2 | < 0.2
COc1cc(C(=O)NC[C@](O)(c2cc3c(c(-c4ccnc(C(F)(F)F)c4Cl)n2)OC[C@]3(C)C(N)=O)C(F)(F)F)cc2cn(C3(F)CC3)nc12 [Example 534] | < 0.2 | < 0.2
COc1cc(C(=O)NC[C@](O)(c2cc3c(c(-c4ccnc(C(F)(F)F)c4Cl)n2)OC[C@]3(C)C(N)=O)C(F)(F)F)cc2oc(C3CC3)nc12 [Example 536] | < 0.2 | < 0.2
COc1cc(C(=O)NC[C@](O)(c2cc3c(c(-c4ccnc(C(F)F)c4Cl)n2)OC[C@]3(C)C(N)=O)C2CC2)cc2oc(C(F)F)nc12 [Example 542] | < 0.2 | < 0.2
COc1nccc(-c2nc([C@@](O)(CNC(=O)c3cc(OC)c4nn(C5(F)CC5)cc4c3)C(F)(F)F)cc3c2OC[C@]3(C)C(N)=O)c1Cl [Example 543] | < 0.2 | < 0.2
COc1cc(C(=O)NC[C@](O)(c2cc3c(c(-c4ccnc(C(F)F)c4Cl)n2)OC[C@]3(C)C(N)=O)C(F)(F)F)cc2cn(C3(F)CC3)nc12 [Example 548] | < 0.2 | < 0.2
COc1cc(C(=O)NC[C@](O)(c2cc3c(c(-c4ccnc(C(F)F)c4Cl)n2)OC[C@]3(C)C(N)=O)C(F)(F)F)cc2oc(C3CC3)nc12 [Example 550] | < 0.2 | < 0.2
COc1cc(C(=O)NC[C@](O)(c2cc3c(c(-c4ccnc(C(F)(F)F)c4Cl)n2)OC[C@]3(C)C(N)=O)C2CC2)cc2cc(C3CC3)nn12 [Example 579] | < 0.2 | < 0.2
COc1cc(C(=O)NC[C@](O)(c2cc3c(c(-c4ccnc(C(F)(F)F)c4Cl)n2)OC[C@]3(C)C(N)=O)C2CC2)cc2oc(C(F)F)nc12 [Example 581] | < 0.2 | < 0.2
COc1nccc(-c2nc([C@@](O)(CNC(=O)c3cc(OC)n4nc(C5CC5)cc4c3)C3CC3)cc3c2OC[C@]3(C)C(N)=O)c1Cl [Example 582] | < 0.2 | < 0.2
COc1nccc(-c2nc([C@@](O)(CNC(=O)c3cc(OC4CC4)c4nn(C5CC5)cc4c3)C3CC3)cc3c2OC[C@]3(C)C(N)=O)c1Cl [Example 585] | < 0.2 | < 0.2
COc1cc(C(=O)NC[C@](O)(c2cc3c(c(-c4cccc(F)c4Cl)n2)OC[C@]3(C)C(N)=O)C(F)(F)F)cc2cn(C3(F)CC3)nc12 [Example 611] | < 0.2 | < 0.2
COc1cc(C(=O)NC[C@](O)(c2cc3c(c(-n4ncc5c(F)cccc54)n2)OC[C@]3(C)C(N)=O)C2CC2)cc2cn(C3(F)CC3)nc12 [Example 613] | < 0.2 | < 0.2
COc1cc(C(=O)NC[C@](O)(c2cc3c(c(-c4cccc(F)c4Cl)n2)OC[C@]3(C)C(N)=O)C2CC2)cc2cn(C3(F)CC3)nc12 [Example 615] | < 0.2 | < 0.2
